Values joined by “and” are separate entries in the source; they are usually repeats but may differ in a detail not shown here. Identical values can stand only once.
Assays:
[1] = system: human PMN migration across T84 epithelial monolayers; assay: PMN chemotactic capacity toward LXA4 placed in lower chamber, apical-to-basolateral; assay type: cell-based; details: compared to 1 μM fMLP
Protocol: (§1) Migration assay: The PMN transepithelial migration assay has been detailed in Nash S., et al. (1987). J. Clin. Invest. 80: 1104-1113; Nash S., et al. (1991). J. Clin. Invest 87: 1474-1477); Parkos C. A., et al. (1991). J. Clin. Invest. 88: 1605-1612); and Parkos C. A., et al. (1992). J. Cell. Biol. 117: 757-764. Briefly, human PMN were isolated from normal human volunteers and suspended in modified HBSS (without Ca^2+ and Mg^2+, with 10 mM Hepes, pH 7.4, Sigma) at a concentration of 5×10^7/ml. Prior to addition of PMN, T84 monolayers were extensively rinsed in HBSS to remove residual serum components. Migration assays were performed by the addition of PMN (40 μl) to HBSS ([…]) in the upper chambers after chemoattractant (1 μM fMLP in HBSS) was added to the opposing (lower) chambers. Unless otherwise indicated, PMN were not washed free of LXA4 prior to addition to monolayers, and therefore, a five-fold dilution of lipoxin was present during the migration assay. For apical-to-basolateral migration experiments, PMN (2×10^6) were added at time 0. Migration in the basolateral-to-apical direction, while qualitatively similar, is substantially more efficient than in the apical-to-basolateral direction. (Parkos C. A., et al. (1991). J. Clin. Invest. 88: 1605-1612). Therefore, 5-fold fewer PMN (4×10^5) were added when migration proceeded in the basolateral-to-apical direction in order that baseline migration signals be approximately equivalent in both directions. (Parkos C. A., et al. (1991). J. Clin. Invest. 88: 1605-1612). Migration was allowed to proceed for 120 minutes, unless otherwise noted. All PMN transepithelial migration experiments were performed in a 37° C. room to ensure that epithelial monolayers, solutions, plasticware, etc., were maintained at uniform 37° C. temperature.
(§2) Migration was quantitated by assaying for the PMN azurophilic granule marker myeloperoxidase (MPO) as described previously (Parkos C. A., et al. (1991). J. Clin. Invest 88: 1605-1612). Following each migration assay, non-adherent PMN were extensively washed from the surface of the monolayer and PMN cell equivalents (PMN CE), estimated from a standard curve, were assessed as the number of PMN's associated with the monolayer, the number which had completely traversed the monolayer (ie. across the monolayer into the reservoir bath), as well as the total number of transmigrating PMN (the sum of monolayer and reservoir-associated PMN).
To investigate whether LXA4 could serve to stimulate PMN migration in this assay system, dilutions of LXA4 in the range of 0.01-10 nM were placed in the lower chamber of migration wells. Untreated PMN's were added to the upper chamber and assessed for chemotactic capacity toward LXA4 in the apical-to-basolateral direction. […]

[2] = system: human PMN migration across T84 epithelial monolayers; assay: PMN transepithelial migration assay, apical-to-basolateral direction, fMLP gradient, myeloperoxidase readout; assay type: cell-based
Protocol: Cell culture Approximately 350 epithelial monolayers were used for these studies. T84 intestinal epithelial cells (passages 70-95) were grown and maintained as confluent monolayers on collagen coated permeable support. Monolayers were grown on 0.33 cm^2 ring-supported polycarbonate filters (Costar Corp., Cambridge, Mass.) and utilized 6-14 days after plating as described in Example 2. Transepithelial resistance to passive ion flow was measured as described in Parkos C. A., et al. (1991). J. Clin. Invest. 88: 1605-1612); and Parkos C. A., et al. (1992). J. Cell. Biol. 117: 757-764). Inverted monolayers used to study migration of PMN in the basolateral-to-apical direction were constructed as described in Parkos C. A., et al. (1991). J. Clin. Invest. 88:1605-1612).
as §1, §2
Data Presentation: Individual experiments were performed using large numbers of uniform groups of monolayers and PMN from individual blood donors on individual days. PMN isolation was restricted to five different blood donors (repetitive donations) over the course of these studies. Myeloperoxidase assay data were compared by two-factor analysis of variance (ANOVA) or by comparison of means using Student's t-Test PMN migration results are represented as PMN CE derived from a daily standard PMN dilution curve. Monolayer-associated PMN are represented as the number of PMN CE per monolayer and reservoir-associated PMN (ie. PMN which had completely traversed the monolayer into the lower chamber) are represented as the number of PMN CE/ml (total volume of 1 ml). […]

[3] = 10 nM LXA4, 30 min pre-exposure
[4] = PMN pre-exposed 10 nM LXA4 15 min 37°C, 1 μM fMLP, 120 min

CCCCC[C@H](O)/C=C/C=C\C=C\C=C\[C@@H](O)[C@@H](O)CCCC(=O)O (relative stereo) [LXA4, (5S, 6R, 15S)-trihydroxy-7,9,13-trans-11-cis-eicosatetraenoic acid]
PMN migration toward LXA4, % of fMLP-induced PMN migration ([1]; 0.01 nM LXA4 in lower chamber): 6±2.1% | PMN migration toward LXA4, % of fMLP-induced PMN migration ([1]; 0.1 nM LXA4 in lower chamber): 9±3.6% | PMN migration toward LXA4, % of fMLP-induced PMN migration ([1]; 1.0 nM LXA4 in lower chamber): 6±2.4% | PMN migration toward LXA4, % of fMLP-induced PMN migration ([1]; 10 nM LXA4 in lower chamber): 12±1.4% | PMN in lower reservoirs ([2]; 0.001 nM LXA4, 15 min pre-exposure 37°C): 13.71±4.14 ×10^4 PMN CE/ml | PMN in lower reservoirs ([2]; 0.01 nM LXA4, 15 min pre-exposure 37°C): 14.11±3.01 ×10^4 PMN CE/ml | PMN in lower reservoirs ([2]; 0.1 nM LXA4, 15 min pre-exposure 37°C): 15.43±4.65 ×10^4 PMN CE/ml | PMN in lower reservoirs ([2]; 1 nM LXA4, 15 min pre-exposure 37°C): 19.96±4.83 ×10^4 PMN CE/ml | total PMN migration after LXA4 washout ([2]; 10 nM LXA4 15 min, PMN then washed twice in HBSS): 14.5±0.3 ×10^4 PMN CE/ml | total PMN migration (total MPO activity) ([2]; 10 nM LXA4 15 min, harvested 45 min after addition of PMN): 1.51±0.12 ×10^4 PMN CE/ml | fold increase in the total number of transmigrating PMN ([2]; 10 nM LXA4 15 min vs vehicle control): ~2 fold | total PMN migration ([2]; 10 nM LXA4, 0 min pre-exposure): 16.61±3.56 ×10^4 total PMN CE/ml | total PMN migration relative to vehicle control ([2]; 10 nM LXA4, 45 and 60 minutes pre-exposure): returned to vehicle control values | increase in total PMN migration compared to vehicle controls ([2]; 10 nM LXA4, 5 min pre-exposure): 50% | reservoir-associated PMN ([2]; 10 nM LXA4, 5 min pre-exposure): 18.02±3.35 ×10^4 PMN CE/ml | increase in total PMN migration compared to vehicle controls ([2]; 10 nM LXA4, 15 min pre-exposure): 80% and 68% | increase in total PMN migration compared to vehicle controls [2, 3]: 51% | reservoir-associated PMN [2, 3]: 19.64±3.54 ×10^4 PMN CE/ml | monolayer-associated PMN [2, 4]: 6.93±1.77 ×10^4 PMN CE/monolayer and 7.55±0.71 ×10^4 PMN CE/monolayer | reservoir-associated PMN (completely traversed the monolayer) [2, 4]: 11.02±2.91 ×10^4 PMN CE/ml and 19.96±3.18 ×10^4 PMN CE/ml and 20.38±4.83 ×10^4 PMN CE/ml | total number of transmigrating PMN ([2]; PMN pre-exposed 10 nM LXA4 15 min, LXA4 present, 1 μM fMLP, 120 min): 18.6±1.0 ×10^4 PMN CE/ml and 17.95±2.15 ×10^4 PMN CE/ml

Source: patent US8440718B2, “Modulation of inflammation related to columnar epithelia” (The Brigham and Women's Hospital, Inc., priority 1991, dated 2013)
